Assay results taken from US8536354B2, “Steroidal ligands and their use in gene switch modulation” (Intrexon Corporation, priority 2008, dated 2013).
Read-outs that look alike come from different tables or passages of the source.

What was measured:
[1] = biological target: T1, wild-type Drosophila melanogaster EcR (DmEcR-DEF) (Drosophila melanogaster, UniProt P34021); assay: Two-hybrid gene switch assay, DmEcR-DEF in NIH3T3 cells; conditions: for rel max FI (20E), DM: max fold induction at any concentration relative to 20E; for rel max FI (PoA), DM: max fold induction at any concentration relative to PoA
T1 sequence (P34021 342-878 limits assumed): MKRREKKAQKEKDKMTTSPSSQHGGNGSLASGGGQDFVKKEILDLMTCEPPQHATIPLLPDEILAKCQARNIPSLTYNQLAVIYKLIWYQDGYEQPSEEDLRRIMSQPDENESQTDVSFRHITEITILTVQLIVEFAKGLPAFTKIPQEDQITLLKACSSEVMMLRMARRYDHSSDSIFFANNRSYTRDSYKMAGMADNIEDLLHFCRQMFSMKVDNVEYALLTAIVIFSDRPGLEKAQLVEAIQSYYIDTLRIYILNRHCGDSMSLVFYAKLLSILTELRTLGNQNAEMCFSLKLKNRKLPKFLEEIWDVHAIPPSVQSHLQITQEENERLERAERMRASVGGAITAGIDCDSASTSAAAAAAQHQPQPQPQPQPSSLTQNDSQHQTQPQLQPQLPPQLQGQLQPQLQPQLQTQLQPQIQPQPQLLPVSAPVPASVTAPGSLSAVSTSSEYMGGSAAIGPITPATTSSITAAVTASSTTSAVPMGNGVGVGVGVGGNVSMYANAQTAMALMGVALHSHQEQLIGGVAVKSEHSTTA

[2] = biological target: T2, Amblyomma americanum EcR (AmaEcR-DEF) (Amblyomma americanum, UniProt O44338); assay: Two-hybrid gene switch assay, AmaEcR-DEF in NIH3T3 cells; conditions: for Emax: NIH3T3, 48 h
T2 sequence (O44338 291-570): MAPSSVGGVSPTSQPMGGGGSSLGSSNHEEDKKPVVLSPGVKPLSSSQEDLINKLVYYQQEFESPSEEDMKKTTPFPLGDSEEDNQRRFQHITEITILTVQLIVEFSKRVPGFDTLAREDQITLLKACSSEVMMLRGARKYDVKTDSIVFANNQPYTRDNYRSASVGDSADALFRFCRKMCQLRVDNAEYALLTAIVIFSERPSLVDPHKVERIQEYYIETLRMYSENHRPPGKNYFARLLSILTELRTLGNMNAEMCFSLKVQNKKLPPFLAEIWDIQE
T2 sequence (P28702 299-449 partner): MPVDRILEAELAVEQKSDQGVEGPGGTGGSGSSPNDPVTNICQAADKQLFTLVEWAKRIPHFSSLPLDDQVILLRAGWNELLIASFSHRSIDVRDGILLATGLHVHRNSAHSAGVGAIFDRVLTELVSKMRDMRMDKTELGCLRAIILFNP

[3] = biological target: wild-type Aedes aegypti EcR (AaEcR; GAL4-EcR DEF with VP16-RXR-USP chimera) (Aedes aegypti, UniProt P49880); assay: Two-hybrid gene switch assay, luciferase reporter, wild-type AaEcR, mouse NIH3T3 cells; type: cell-based; conditions: FIG. 14A/14B, GAL4-EcR(DEF) with VP16-RXR-USP chimera, read-out: EC50
Sequence of wild-type Aedes aegypti EcR (AaEcR; GAL4-EcR DEF with VP16-RXR-USP chimera) (P49880 with tags, fused parts or gaps limits assumed, change not shown): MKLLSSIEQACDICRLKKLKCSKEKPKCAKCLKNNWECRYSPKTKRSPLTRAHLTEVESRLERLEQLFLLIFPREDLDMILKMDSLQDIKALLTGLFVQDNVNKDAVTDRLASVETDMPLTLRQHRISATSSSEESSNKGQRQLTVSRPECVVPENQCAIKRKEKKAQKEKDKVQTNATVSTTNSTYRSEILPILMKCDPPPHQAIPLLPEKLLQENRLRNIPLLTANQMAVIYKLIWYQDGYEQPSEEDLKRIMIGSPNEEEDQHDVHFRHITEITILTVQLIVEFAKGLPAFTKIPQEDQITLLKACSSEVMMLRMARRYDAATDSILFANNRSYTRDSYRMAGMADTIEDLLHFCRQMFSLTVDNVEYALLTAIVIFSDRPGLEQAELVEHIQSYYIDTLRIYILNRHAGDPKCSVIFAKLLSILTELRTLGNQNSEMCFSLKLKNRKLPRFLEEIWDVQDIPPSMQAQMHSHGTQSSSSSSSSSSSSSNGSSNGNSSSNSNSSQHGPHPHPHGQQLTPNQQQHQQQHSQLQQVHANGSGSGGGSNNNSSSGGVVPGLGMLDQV

[4] = biological target: wild-type Drosophila melanogaster EcR (DmEcR; GAL4-EcR DEF with VP16-RXR-USP chimera) (Drosophila melanogaster, UniProt P34021); assay: Two-hybrid gene switch assay, luciferase reporter, wild-type DmEcR, mouse NIH3T3 cells; type: cell-based; conditions: EC50, FIG. 14A/14B, GAL4-EcR(DEF) with VP16-RXR-USP chimera
Sequence of wild-type Drosophila melanogaster EcR (DmEcR; GAL4-EcR DEF with VP16-RXR-USP chimera) (P34021 with tags, fused parts or gaps limits assumed): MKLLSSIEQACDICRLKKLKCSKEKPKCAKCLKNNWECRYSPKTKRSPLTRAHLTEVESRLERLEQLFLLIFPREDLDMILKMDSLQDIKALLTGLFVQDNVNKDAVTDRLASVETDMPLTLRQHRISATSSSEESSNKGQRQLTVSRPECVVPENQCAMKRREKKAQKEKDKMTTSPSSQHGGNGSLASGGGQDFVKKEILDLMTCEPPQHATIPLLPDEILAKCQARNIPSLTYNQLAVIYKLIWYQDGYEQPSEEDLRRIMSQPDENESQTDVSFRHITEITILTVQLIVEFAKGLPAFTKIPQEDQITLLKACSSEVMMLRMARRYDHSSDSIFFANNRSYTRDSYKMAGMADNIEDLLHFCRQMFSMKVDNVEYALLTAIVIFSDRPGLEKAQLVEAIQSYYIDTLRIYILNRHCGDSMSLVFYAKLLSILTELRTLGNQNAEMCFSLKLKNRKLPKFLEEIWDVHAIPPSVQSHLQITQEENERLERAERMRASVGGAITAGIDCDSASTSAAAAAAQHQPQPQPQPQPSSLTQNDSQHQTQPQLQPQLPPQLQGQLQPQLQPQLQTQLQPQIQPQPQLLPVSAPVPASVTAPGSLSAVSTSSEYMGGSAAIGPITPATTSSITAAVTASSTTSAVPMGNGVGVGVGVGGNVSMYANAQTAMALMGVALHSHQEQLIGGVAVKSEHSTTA

[5] = biological target: BmEcR (GAL4-EcR DEF with VP16-RXR-USP chimera) (Bombyx mori, UniProt P49881); assay: Two-hybrid gene switch assay, luciferase reporter, BmEcR, mouse NIH3T3 cells; type: cell-based
Sequence of BmEcR (GAL4-EcR DEF with VP16-RXR-USP chimera) (P49881 other isoform, or with tags, fused parts or gaps, change not shown): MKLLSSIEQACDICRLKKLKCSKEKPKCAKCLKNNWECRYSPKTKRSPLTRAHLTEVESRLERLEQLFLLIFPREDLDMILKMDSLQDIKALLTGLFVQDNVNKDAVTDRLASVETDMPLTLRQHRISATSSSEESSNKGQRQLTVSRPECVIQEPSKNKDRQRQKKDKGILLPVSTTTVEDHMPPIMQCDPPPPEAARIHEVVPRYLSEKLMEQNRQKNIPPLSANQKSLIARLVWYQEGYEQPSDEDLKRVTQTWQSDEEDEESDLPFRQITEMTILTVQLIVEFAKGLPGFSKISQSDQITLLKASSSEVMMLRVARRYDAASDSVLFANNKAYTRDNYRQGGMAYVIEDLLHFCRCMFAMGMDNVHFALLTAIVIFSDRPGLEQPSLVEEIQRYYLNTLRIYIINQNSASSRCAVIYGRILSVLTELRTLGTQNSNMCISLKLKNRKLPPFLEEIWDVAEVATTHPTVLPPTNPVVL

[6] = tested on: NcEcR (GAL4-EcR DEF with VP16-RXR partner); assay: Two-hybrid gene switch assay, luciferase reporter, NcEcR, mouse NIH3T3 cells; conditions: FIG. 14A/14B, GAL4-EcR(DEF)
[7] = biological target: T3, AmaEcR (GAL4-EcR DEF with VP16-RXR-USP chimera) (Amblyomma americanum, UniProt O44338); assay: Two-hybrid gene switch assay, luciferase reporter, AmaEcR, mouse NIH3T3 cells; conditions: EC50, FIG. 14A/14B, GAL4-EcR(DEF) with VP16-RXR-USP chimera
T3 sequence (O44338 255-570): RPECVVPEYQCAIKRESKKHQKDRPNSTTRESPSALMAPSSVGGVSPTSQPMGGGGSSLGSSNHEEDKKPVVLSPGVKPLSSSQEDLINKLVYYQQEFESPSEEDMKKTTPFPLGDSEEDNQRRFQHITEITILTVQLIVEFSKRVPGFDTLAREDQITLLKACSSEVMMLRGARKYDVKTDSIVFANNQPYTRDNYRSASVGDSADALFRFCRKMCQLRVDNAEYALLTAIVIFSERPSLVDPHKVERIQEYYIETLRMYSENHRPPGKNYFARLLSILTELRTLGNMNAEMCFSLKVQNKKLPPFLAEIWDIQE
T3 sequence (P28702 1-533 partner): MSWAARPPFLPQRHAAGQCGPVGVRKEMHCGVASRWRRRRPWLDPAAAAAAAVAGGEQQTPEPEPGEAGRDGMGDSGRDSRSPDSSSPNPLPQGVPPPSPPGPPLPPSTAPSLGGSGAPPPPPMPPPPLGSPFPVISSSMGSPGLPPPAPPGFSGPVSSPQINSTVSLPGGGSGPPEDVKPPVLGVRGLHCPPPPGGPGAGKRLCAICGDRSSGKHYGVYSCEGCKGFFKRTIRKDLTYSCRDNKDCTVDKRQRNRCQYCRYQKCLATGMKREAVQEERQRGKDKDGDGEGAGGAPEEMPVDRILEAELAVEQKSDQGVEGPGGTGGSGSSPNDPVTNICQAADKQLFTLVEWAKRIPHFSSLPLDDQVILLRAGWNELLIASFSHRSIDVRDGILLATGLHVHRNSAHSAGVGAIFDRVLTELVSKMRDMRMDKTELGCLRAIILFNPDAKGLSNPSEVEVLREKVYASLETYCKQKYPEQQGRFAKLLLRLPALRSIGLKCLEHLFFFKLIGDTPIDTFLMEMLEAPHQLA

[8] = read-out: rel max FI (20E), AMA
[9] = read-out: rel max FI (PoA), AMA

| SMILES | EC50 [1] | rel max FI (20E), DM ([1]; DmEcR) | rel max FI (PoA), DM ([1]; DmEcR) | EC50 [2] | Emax [2, 8] | Emax [2, 9] | also measured |
| --- | --- | --- | --- | --- | --- | --- | --- |
| CO[C@H](CCC(C)(C)O)[C@](C)(O)C1CC[C@@]2(O)C3=CC(=O)C4C[C@@H](O)[C@@H](O)CC4(C)C3CCC12C (stereo partly shown) [20E-22-methyl ether] | ~4 µM | 0.87 | 1.07 | ~1 µM | 108% | 83% | – |
| COC1C[C@H]2C(=O)C=C3[C@H](CC[C@]4(C)[C@@H]([C@@](C)(O)C(CCC(C)(C)O)OC)CC[C@@]34OC)[C@@]2(C)CC1OC (stereo partly shown) [20E-2,3,14,22-tetramethyl ether] | – | 0.01 | 0.02 | – | – | – | EC50 ([1]; read-out: EC50 (μM), DM, DmEcR, NIH3T3 cells, luciferase, 48 h, ligand 0.01-33 μM): > 33 µM; rel max FI (20E), AMA ([2]; AmaEcR, max fold induction at any concentration relative to 20E): 0.34; rel max FI (PoA), AMA ([2]; AmaEcR, max fold induction at any concentration relative to PoA): 0.26; EC50 ([2]; read-out: EC50 (μM), AMA, AmaEcR, NIH3T3 cells, luciferase, 48 h, ligand 0.01-33 μM): > 33 µM |
| CO[C@H]1C[C@@]2(C)[C@@H](C[C@H]1O)C(=O)C=C1[C@@H]2CC[C@]2(C)[C@@H]([C@@](C)(O)[C@@H](CCC(C)(C)O)OC)CC[C@@]12O [20E-2,22-dimethyl ether] | – | 0.12 | 0.15 | ~8 µM | 94% | 72% | EC50 ([1]; EC50 (μM), DM, DmEcR, NIH3T3 cells, luciferase, 48 h, ligand 0.01-33 μM): ~20 µM |
| CO[C@@H]1C[C@H]2C(=O)C=C3[C@H](CC[C@]4(C)[C@@H]([C@@](C)(O)[C@@H](CCC(C)(C)O)OC)CC[C@@]34O)[C@@]2(C)C[C@@H]1O [20E-3,22-dimethyl ether] | ~20 µM | 0.07 | 0.09 | ~2 µM | 104% | 80% | – |
| CO[C@@H]1C[C@H]2C(=O)C=C3[C@H](CC[C@]4(C)[C@@H]([C@@](C)(O)[C@H](O)CCC(C)(C)O)CC[C@@]34O)[C@@]2(C)C[C@@H]1O [20E-3-methyl ether] | > 33 µM | 0.02 | 0.03 | ~3.3 µM | 91% | 70% | – |
| CO[C@H]1C[C@@]2(C)[C@@H](C[C@H]1O)C(=O)C=C1[C@@H]2CC[C@]2(C)[C@@H]([C@@](C)(O)[C@H](O)CCC(C)(C)O)CC[C@@]12O [20E-2-methyl ether] | > 33 µM | 0.00 | 0.00 | ~10 µM | 65% | 50% | – |
| CC(C)(O)CCC(=O)[C@](C)(O)[C@H]1CC[C@@]2(O)C3=CC(=O)[C@@H]4C[C@@H](O)[C@@H](O)C[C@]4(C)[C@H]3CC[C@]12C [Compound 22-dehydro-20-hydroxyecdysone] | – | – | – | – | – | – | EC50 [3]: ~2 µM; EC50 [4]: ~20 µM; EC50 [5]: > 33 µM; EC50 [6]: 1.84 µM; EC50 [7]: ~7 µM |
| CC(C)(O)CC[C@@H](O)[C@](C)(O)[C@H]1CC[C@@]2(O)C3=CC(=O)[C@@H]4C[C@@H](O)[C@@H](O)[C@@H](O)[C@]4(C)[C@H]3CC[C@]12C [integristerone A] | – | – | – | – | – | – | EC50 [3]: ~10 µM; EC50 [4]: > 33 µM; EC50 ([5]; read-out: EC50): > 33 µM; EC50 [6]: ~2 µM; EC50 [7]: ~10 µM |
